Experimental data as given in patent US11407719B2, “Anti-inflammatory agents” (Resverlogix Corp., priority 2009, dated 2022).

Tests used:
hIL-6 mRNA = test: Quantification of hIL-6 mRNA; format: cell-based, human; set-up: key: Active: an active compound is one that causes a ≥20% inhibition in IL-6 mRNA at a concentration less than or equal to 10 μM; conditions: IL-6 mRNA by real-time PCR; differentiated U937 cells, 1 h pretreatment, lipopolysaccharide stimulation 3 h; concentration ≤10 μM
Method: In this example, […] in tissue culture cells was quantitated to measure the transcriptional inhibition of hIL-6 when treated with a compound of the invention.
A human leukemic monocyte lymphoma cell line (U937) was plated (3.2×10^5 cells per well) in a 96-well plate in 100 μL RPMI-1640, and differentiated for 3 days prior to the addition of the compound of interest. The cells were pretreated for 1 h with the test compound prior to stimulation with lipolysaccharide from Escherichia coli. The cells were incubated at 37° C. for 3 h before the cells were harvested. At time of harvest, the spent media was removed from the cells and the cells were rinsed in 200 μL PBS. Cell lysis solution (70 μL) was added the cells in each well and incubated for 5-10 min at room temperature, to allow for complete cell lysis and detachment. mRNA was then prepared using the “mRNA Catcher PLUS plate” (Invitrogen), according to the protocol supplied. After the last wash, as much wash buffer as possible was aspirated without allowing the wells to dry. Elution buffer (E3, 70 μL) was then added to each well. mRNA was then eluted by incubating the mRNA Catcher PLUS plate with Elution Buffer for 5 min at 68° C. and then immediately placing the plate on ice.
(§1) The eluted mRNA isolated was then used in a one-step quantitative real-time PCR reaction, using components of the Ultra Sense Kit together with Applied Biosystems primer-probe mixes. Real-time PCR data was analyzed, normalizing the Ct values for hIL-6 to an internal control, prior to determining the fold induction of each unknown sample, relative to the control.

VCAM-1 mRNA = test: Quantification of hVCAM mRNA; format: cell-based, human; set-up: key: Active: an active compound is one that causes a ≥20% inhibition in VCAM-1 mRNA at a concentration less than or equal to 10 μM; -1 mRNA at a concentration less than or equal to 10 μM; conditions: VCAM-1 mRNA by real-time PCR; HUVECs, 1 h pretreatment, tumor necrosis factor-α stimulation 24 h; concentration ≤10 μM
Method: In this example, […] in tissue culture cells was quantitated to measure the transcriptional inhibition of hVCAM when treated with a compound of the invention.
Human umbilical vein endothelial cells (HUVECs) were plated in a 96-well plate (4.0×10^3 cells/well) in 100 μL EGM media and incubated for 24 h prior to the addition of the compound of interest. The cells were pretreated for 1 h with the test compound prior to stimulation with tumor necrosis factor-α. The cells were incubated for an additional 24 h before the cells were harvested. At time of harvest, the spent media was removed from the HUVECs and rinsed in 200 μL PBS. Cell lysis solution (70 μL) was then added the cells in each well and incubated for ˜5-10 min at room temperature, to allow for complete cell lysis and detachment. mRNA was then prepared using the “mRNA Catcher PLUS plate” (Invitrogen), according to the protocol supplied. After the last wash, as much wash buffer as possible was aspirated without allowing the wells to dry. Elution buffer (E3, 70 μL) was then added to each well. mRNA was then eluted by incubating the mRNA Catcher PLUS plate with elution buffer for 5 min at 68° C. and then immediately placing the plate on ice.
as §1, with “mRNA so” for “mRNA”, “hVCAM” for “hIL-6”

## COc1cc(OC)c2c(=O)n(CCCN3CCCC3)c(-c3cc(C)c(OCCCN4CCCC4)c(C)c3)nc2c1 [2-(3,5-Dimethyl-4-(3-(pyrrolidin-1-yl)propoxy)phenyl)-5,7-dimethoxy-3-(3-(pyrrolidin-1-yl)propyl)quinazolin-4(3H)-one]
other
  melting point: 109 to 111 °C
hIL-6 mRNA
  Inhibition of IL-6 expression: Active

## Cc1cc(-c2nc3cc(OC(C)C)cc(OC(C)C)c3c(=O)[nH]2)cc(C)c1OCCN1CCCC1 [2-(3,5-Dimethyl-4-(2-(pyrrolidin-1-yl)ethoxy)phenyl)-5,7-diisopropoxyquinazolin-4(3H)-one]
other
  melting point: 65 to 68 °C
hIL-6 mRNA
  Inhibition of IL-6 expression: Active

## Cc1cc(-c2nc3cc(F)cc(N4CCCC4)c3c(=O)[nH]2)cc(C)c1OCCN1CCCC1 [2-(3,5-Dimethyl-4-(2-(pyrrolidin-1-yl)ethoxy)phenyl)-7-fluoro-5-(pyrrolidin-1-yl)quinazolin-4(3H)-one]
hIL-6 mRNA
  Inhibition of IL-6 expression: Active
VCAM-1 mRNA
  Inhibition of VCAM-1 expression: Active

## COc1cc(OC)c2c(=O)[nH]c(-c3ccc(N4CCN(C(=O)C(C)C)CC4)cc3)nc2c1 [2-(4-(4-Isobutyrylpiperazin-1-yl)phenyl)-5,7-dimethoxyquinazolin-4(3H)-one]
hIL-6 mRNA
  Inhibition of IL-6 expression: Active
VCAM-1 mRNA
  Inhibition of VCAM-1 expression: Active

## COc1cc(OC)c2c(=O)[nH]c(-c3ccc(N4C[C@@H](C)N(C(C)=O)[C@@H](C)C4)cc3)nc2c1 [2-(4-((3R,5S)-4-Acetyl-3,5-dimethylpiperazin-1-yl)phenyl)-5,7-dimethoxyquinazolin-4(3H)-one]
hIL-6 mRNA
  Inhibition of IL-6 expression: Active
VCAM-1 mRNA
  Inhibition of VCAM-1 expression: Active

## COc1cc(OC)c2c(=O)[nH]c(-c3ccc(N4CCN(C(=O)c5ccc(F)cc5)CC4)cc3)nc2c1 [2-(4-(4-(4-Fluorobenzoyl)piperazin-1-yl)phenyl)-5,7-dimethoxyquinazolin-4(3H)-one]
hIL-6 mRNA
  Inhibition of IL-6 expression: Active
VCAM-1 mRNA
  Inhibition of VCAM-1 expression: Active

## Cc1cc(-c2nc3cc(F)cc(F)c3c(=O)[nH]2)cc(C)c1OCCN1CCCC1 [2-(3,5-Dimethyl-4-(2-(pyrrolidin-1-yl)ethoxy)phenyl)-5,7-difluoroquinazolin-4(3H)-one]
hIL-6 mRNA
  Inhibition of IL-6 expression: Active
VCAM-1 mRNA
  Inhibition of VCAM-1 expression: Active

## COc1cc(OC)c2c(=O)[nH]c(-c3ccc(N4CCN(C(=O)c5cc(Cl)sc5Cl)CC4)cc3)nc2c1 [2-(4-(4-(2,5-Dichlorothiophene-3-carbonyl)piperazin-1-yl)phenyl)-5,7-dimethoxyquinazolin-4(3H)-one]
hIL-6 mRNA
  Inhibition of IL-6 expression: Active
VCAM-1 mRNA
  Inhibition of VCAM-1 expression: Active

## COc1cc(OC)c2c(=O)[nH]c(-c3cc(C)c(OCCN4C(=O)c5ccccc5C4=O)c(C)c3)nc2c1 [2-(2-(4-(5,7-dimethoxy-4-oxo-3,4-dihydroquinazolin-2-yl)-2,6-dimethylphenoxy)ethyl)isoindoline-1,3-dione]
hIL-6 mRNA
  Inhibition of IL-6 expression: Active
VCAM-1 mRNA
  Inhibition of VCAM-1 expression: Active

## COc1cc(OC)c2c(=O)[nH]c(-c3ccc(Nc4cccnc4)cc3)nc2c1 [5,7-Dimethoxy-2-(4-(pyridin-3-ylamino)phenyl)quinazolin-4(3H)-one]
hIL-6 mRNA
  Inhibition of IL-6 expression: Active
VCAM-1 mRNA
  Inhibition of VCAM-1 expression: Active

## COc1cc(OC)c2c(=O)[nH]c(-c3cc(C)c(OCCN4CCOCC4)c(C)c3)cc2n1 [7-(3,5-dimethyl-4-(2-morpholinoethoxy)phenyl)-2,4-dimethoxy-1,6-naphthyridin-5(6H)-one]
hIL-6 mRNA
  Inhibition of IL-6 expression: Active
VCAM-1 mRNA
  Inhibition of VCAM-1 expression: Active

## COc1cc(OC)c2c(=O)[nH]c(-c3cc(C)c(OCCN4Cc5ccccc5C4)c(C)c3)nc2c1 [2-(4-(2-(Isoindolin-2-yl)ethoxy)-3,5-dimethylphenyl)-5,7-dimethoxyquinazolin-4(3H)-one]
hIL-6 mRNA
  Inhibition of IL-6 expression: Active
VCAM-1 mRNA
  Inhibition of VCAM-1 expression: Active

## COc1cc(OC)c2c(=O)[nH]c(-c3cc(C)c(OC[C@@H]4CCC(=O)N4)c(C)c3)nc2c1 [(S)-2-(3,5-Dimethyl-4-((5-oxopyrrolidin-2-yl)methoxy)phenyl)-5,7-dimethoxyquinazolin-4(3H)-one]
hIL-6 mRNA
  Inhibition of IL-6 expression: Active
VCAM-1 mRNA
  Inhibition of VCAM-1 expression: Active

## COc1cc2nc(-c3ccc(N(C)C)c4ccccc34)[nH]c(=O)c2cc1OC [2-(4-(dimethylamino)naphthalen-1-yl)-6,7-dimethoxyquinazolin-4(3H)-one]
hIL-6 mRNA
  Inhibition of IL-6 expression: Active
VCAM-1 mRNA
  Inhibition of VCAM-1 expression: Active

## COc1cc(OC)c2c(=O)[nH]c(-c3cc(C)c(OCCN4C(=O)CCC4=O)c(C)c3)nc2c1 [1-(2-(4-(5,7-Dimethoxy-4-oxo-3,4-dihydroquinazolin-2-yl)-2,6-dimethylphenoxy)ethyl)pyrrolidine-2,5-dione]
hIL-6 mRNA
  Inhibition of IL-6 expression: Active
VCAM-1 mRNA
  Inhibition of VCAM-1 expression: Active

## COc1cc(OC)c2c(=O)[nH]c(-c3ccc(N4CCCNCC4)cc3)nc2c1 [2-(4-(1,4-Diazepan-1-yl)phenyl)-5,7-dimethoxyquinazolin-4(3H)-one]
hIL-6 mRNA
  Inhibition of IL-6 expression: Active
VCAM-1 mRNA
  Inhibition of VCAM-1 expression: Active

## COc1cc(OC)c2c(=O)[nH]c(-c3ccc(N4CCC(NC(C)=O)CC4)cc3)nc2c1 [N-(1-(4-(5,7-Dimethoxy-4-oxo-3,4-dihydroquinazolin-2-yl)phenyl)piperidin-4-yl)acetamide]
hIL-6 mRNA
  Inhibition of IL-6 expression: Active
VCAM-1 mRNA
  Inhibition of VCAM-1 expression: Active

## COc1cc(OC)c2c(=O)[nH]c(-c3ccc(N4CCN(C(C)=O)CC4)cc3)nc2c1 [2-(4-(4-Acetylpiperazin-1-yl)phenyl)-5,7-dimethoxyquinazolin-4(3H)-one]
hIL-6 mRNA
  Inhibition of IL-6 expression: Active
VCAM-1 mRNA
  Inhibition of VCAM-1 expression: Active

## COc1cc(OC)cc(-c2nc3cc(OC)cc(OC)c3c(=O)[nH]2)c1 [2-(3,5-dimethoxyphenyl)-5,7-dimethoxyquinazolin-4(3H)-one]
hIL-6 mRNA
  Inhibition of IL-6 expression: Active
VCAM-1 mRNA
  Inhibition of VCAM-1 expression: Active

## COc1cccc(-c2nc3cc(OC)cc(OC)c3c(=O)[nH]2)c1 [5,7-Dimethoxy-2-(3-methoxyphenyl)quinazolin-4(3H)-one]
hIL-6 mRNA
  Inhibition of IL-6 expression: Active
VCAM-1 mRNA
  Inhibition of VCAM-1 expression: Active

## COc1cc(OC)c2c(=O)[nH]c(-c3ccc(N4CCC(NC(=O)c5ccccc5)CC4)cc3)nc2c1 [N-(1-(4-(5,7-Dimethoxy-4-oxo-3,4-dihydroquinazolin-2-yl)phenyl)piperidin-4-yl)benzamide]
hIL-6 mRNA
  Inhibition of IL-6 expression: Active
VCAM-1 mRNA
  Inhibition of VCAM-1 expression: Active

## COc1cc(OC)c2c(=O)[nH]c(-c3ccc(N4CCN(C(C)C)CC4)cc3)nc2c1 [2-(4-(4-Isopropylpiperazin-1-yl)phenyl)-5,7-dimethoxyquinazolin-4(3H)-one]
hIL-6 mRNA
  Inhibition of IL-6 expression: Active
VCAM-1 mRNA
  Inhibition of VCAM-1 expression: Active

## COc1cc(OC)c2c(=O)[nH]c(-c3ccc(N4CCN(C(=O)CC(F)(F)F)CC4)cc3)nc2c1 [5,7-Dimethoxy-2-(4-(4-(3,3,3-trifluoropropanoyl)piperazin-1-yl)phenyl)quinazolin-4(3H)-one]
hIL-6 mRNA
  Inhibition of IL-6 expression: Active
VCAM-1 mRNA
  Inhibition of VCAM-1 expression: Active

## COc1cc(OC)c2c(=O)[nH]c(-c3ccc(N4CCCN(C)CC4)cc3)nc2c1 [5,7-Dimethoxy-2-(4-(4-methyl-1,4-diazepan-1-yl)phenyl)quinazolin-4(3H)-one]
hIL-6 mRNA
  Inhibition of IL-6 expression: Active
VCAM-1 mRNA
  Inhibition of VCAM-1 expression: Active

## COc1cc(OC)c2c(=O)[nH]c(-c3ccc4[nH]c(CN(C)C)cc4c3)nc2c1 [2-(2-((Dimethylamino)methyl)-1H-indol-5-yl)-5,7-dimethoxyquinazolin-4(3H)-one]
hIL-6 mRNA
  Inhibition of IL-6 expression: Active
VCAM-1 mRNA
  Inhibition of VCAM-1 expression: Active

## CCN1CCN(Cc2ccc(-c3nc4cc(OC)cc(OC)c4c(=O)[nH]3)cc2)CC1 [2-(4-((4-ethylpiperazin-1-yl)methyl)phenyl)-5,7-dimethoxyquinazolin-4(3H)-one]
hIL-6 mRNA
  Inhibition of IL-6 expression: Active
VCAM-1 mRNA
  Inhibition of VCAM-1 expression: Active
